Assay results: paper PMC9133015 (Nature Communications, 2022)

Experiments:
Test in all cases: Kinase inhibitor specificity profiling (Reaction Biology Corporation)
Assay type in all cases: biochemical
[1] = biological target: T1, panel of 370 protein kinases (Homo sapiens, UniProt Q07912); details: 2 h, kinase ACK1; read-out: % Enzyme Activity (relative to DMSO controls)
T1 construct: purchased Reaction Biology Corporation (assay service)

[2] = biological target: T2, panel of 370 protein kinases (Homo sapiens, UniProt Q9H3Y6); details: 2 h, kinase SRMS; read-out: % Enzyme Activity (relative to DMSO controls)
T2 construct: purchased Reaction Biology Corporation (assay service)
T2 sequence (Q9H3Y6 whole entry): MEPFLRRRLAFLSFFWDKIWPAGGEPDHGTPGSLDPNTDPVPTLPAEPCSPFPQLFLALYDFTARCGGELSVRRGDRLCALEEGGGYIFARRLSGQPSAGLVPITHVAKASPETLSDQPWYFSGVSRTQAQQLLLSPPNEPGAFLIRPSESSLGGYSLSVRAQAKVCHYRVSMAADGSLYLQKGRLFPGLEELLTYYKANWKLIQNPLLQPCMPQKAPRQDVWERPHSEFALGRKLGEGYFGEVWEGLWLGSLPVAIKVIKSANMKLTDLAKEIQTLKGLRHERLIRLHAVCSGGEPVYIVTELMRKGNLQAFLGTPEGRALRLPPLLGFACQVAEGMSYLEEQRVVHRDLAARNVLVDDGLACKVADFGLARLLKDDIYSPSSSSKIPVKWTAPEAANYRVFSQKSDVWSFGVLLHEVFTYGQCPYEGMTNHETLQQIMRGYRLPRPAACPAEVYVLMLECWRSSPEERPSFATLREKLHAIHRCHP

[3] = biological target: T3, panel of 370 protein kinases (Homo sapiens, UniProt P14616); details: 2 h, kinase IRR/INSRR; read-out: % Enzyme Activity (relative to DMSO controls)
T3 construct: purchased Reaction Biology Corporation (assay service)

[4] = biological target: T4, panel of 370 protein kinases (Homo sapiens, UniProt P35968); details: 2 h, kinase KDR/VEGFR2; read-out: % Enzyme Activity (relative to DMSO controls)
T4 construct: purchased Reaction Biology Corporation (assay service)
T4 sequence (P35968 20-1356): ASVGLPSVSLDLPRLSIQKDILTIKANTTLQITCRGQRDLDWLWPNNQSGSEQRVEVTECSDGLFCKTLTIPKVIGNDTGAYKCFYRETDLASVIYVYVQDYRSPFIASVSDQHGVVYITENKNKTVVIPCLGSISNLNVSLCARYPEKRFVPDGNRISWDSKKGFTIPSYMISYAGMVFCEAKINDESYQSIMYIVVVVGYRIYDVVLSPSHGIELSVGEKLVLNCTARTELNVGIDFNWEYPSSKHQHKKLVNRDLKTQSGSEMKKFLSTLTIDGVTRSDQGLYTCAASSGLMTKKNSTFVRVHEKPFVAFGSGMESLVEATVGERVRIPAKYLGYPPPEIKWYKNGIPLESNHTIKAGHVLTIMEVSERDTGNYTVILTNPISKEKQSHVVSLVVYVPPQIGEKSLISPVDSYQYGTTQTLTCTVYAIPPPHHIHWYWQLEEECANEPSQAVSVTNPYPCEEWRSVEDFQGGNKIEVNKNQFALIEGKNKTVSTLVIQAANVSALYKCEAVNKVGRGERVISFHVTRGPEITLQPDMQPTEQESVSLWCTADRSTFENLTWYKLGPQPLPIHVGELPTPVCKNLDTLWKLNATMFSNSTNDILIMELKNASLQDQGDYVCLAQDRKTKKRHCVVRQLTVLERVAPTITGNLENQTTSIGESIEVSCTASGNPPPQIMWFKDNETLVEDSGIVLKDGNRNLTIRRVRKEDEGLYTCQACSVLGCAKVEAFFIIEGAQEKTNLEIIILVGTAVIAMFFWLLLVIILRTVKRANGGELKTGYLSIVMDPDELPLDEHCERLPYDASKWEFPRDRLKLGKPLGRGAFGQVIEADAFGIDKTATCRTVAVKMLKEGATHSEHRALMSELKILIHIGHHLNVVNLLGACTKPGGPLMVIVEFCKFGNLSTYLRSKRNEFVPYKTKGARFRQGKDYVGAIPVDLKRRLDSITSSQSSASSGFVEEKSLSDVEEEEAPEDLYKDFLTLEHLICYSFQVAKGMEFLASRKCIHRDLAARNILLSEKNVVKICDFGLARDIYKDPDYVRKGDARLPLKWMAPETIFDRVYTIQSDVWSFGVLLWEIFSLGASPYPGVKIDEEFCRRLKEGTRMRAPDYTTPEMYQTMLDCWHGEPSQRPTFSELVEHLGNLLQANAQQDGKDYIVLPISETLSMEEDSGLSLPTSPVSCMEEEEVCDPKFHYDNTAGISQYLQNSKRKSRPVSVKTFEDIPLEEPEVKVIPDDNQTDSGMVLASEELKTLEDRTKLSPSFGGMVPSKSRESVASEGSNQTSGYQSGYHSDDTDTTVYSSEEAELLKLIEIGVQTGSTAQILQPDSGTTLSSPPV

[5] = biological target: T5, panel of 370 protein kinases (Homo sapiens, UniProt O95835); details: 2 h, kinase LATS1; read-out: % Enzyme Activity (relative to DMSO controls)
T5 construct: purchased Reaction Biology Corporation (assay service)

[6] = biological target: T6, panel of 370 protein kinases (Homo sapiens, UniProt Q13976); details: 2 h, kinase PKG1a; read-out: % Enzyme Activity (relative to DMSO controls)
T6 construct: purchased Reaction Biology Corporation (assay service)

[7] = biological target: T7, panel of 370 protein kinases (Homo sapiens, UniProt Q13555); details: 2 h, kinase CAMK2g; read-out: % Enzyme Activity (relative to DMSO controls)
T7 construct: purchased Reaction Biology Corporation (assay service)

[8] = biological target: T8, panel of 370 protein kinases (Homo sapiens, UniProt O75716); details: 2 h, kinase STK16; read-out: % Enzyme Activity (relative to DMSO controls)
T8 construct: purchased Reaction Biology Corporation (assay service)
T8 sequence (O75716 whole entry): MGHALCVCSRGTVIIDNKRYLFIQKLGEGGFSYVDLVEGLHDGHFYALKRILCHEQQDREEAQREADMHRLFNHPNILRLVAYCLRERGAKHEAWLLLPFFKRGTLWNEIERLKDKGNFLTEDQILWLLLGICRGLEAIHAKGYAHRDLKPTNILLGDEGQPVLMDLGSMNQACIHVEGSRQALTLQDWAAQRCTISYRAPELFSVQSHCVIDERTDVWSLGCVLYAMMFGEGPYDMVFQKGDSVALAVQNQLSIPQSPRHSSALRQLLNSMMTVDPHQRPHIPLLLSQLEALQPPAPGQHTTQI

[9] = biological target: T9, panel of 370 protein kinases (Homo sapiens, UniProt Q9Y463); details: 2 h, kinase DYRK1B; read-out: % Enzyme Activity (relative to DMSO controls)
T9 construct: purchased Reaction Biology Corporation (assay service)
T9 sequence (Q9Y463 whole entry): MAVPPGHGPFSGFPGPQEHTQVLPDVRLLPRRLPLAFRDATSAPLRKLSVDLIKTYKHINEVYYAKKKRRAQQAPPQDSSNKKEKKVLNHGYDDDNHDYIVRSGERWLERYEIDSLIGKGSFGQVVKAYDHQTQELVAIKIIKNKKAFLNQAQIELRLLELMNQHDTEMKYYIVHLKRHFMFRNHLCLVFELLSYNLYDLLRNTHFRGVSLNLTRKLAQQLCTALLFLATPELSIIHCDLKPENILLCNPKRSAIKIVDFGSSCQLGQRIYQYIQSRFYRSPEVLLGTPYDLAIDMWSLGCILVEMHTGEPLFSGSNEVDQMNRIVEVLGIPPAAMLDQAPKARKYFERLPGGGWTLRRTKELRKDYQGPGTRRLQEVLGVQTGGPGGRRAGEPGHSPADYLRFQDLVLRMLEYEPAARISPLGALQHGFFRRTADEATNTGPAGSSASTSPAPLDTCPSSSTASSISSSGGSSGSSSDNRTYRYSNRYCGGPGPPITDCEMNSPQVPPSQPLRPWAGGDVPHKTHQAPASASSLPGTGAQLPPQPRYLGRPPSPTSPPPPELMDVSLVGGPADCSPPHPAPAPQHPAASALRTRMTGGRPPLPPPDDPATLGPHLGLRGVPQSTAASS

[10] = biological target: T10, panel of 370 protein kinases (Homo sapiens, UniProt O60307); details: 2 h, kinase MAST3; read-out: % Enzyme Activity (relative to DMSO controls)
T10 construct: purchased Reaction Biology Corporation (assay service)

[11] = biological target: T11, panel of 370 protein kinases (Homo sapiens, UniProt P42680); details: 2 h, kinase TEC; read-out: % Enzyme Activity (relative to DMSO controls)
T11 construct: purchased Reaction Biology Corporation (assay service)
T11 sequence (P42680 whole entry): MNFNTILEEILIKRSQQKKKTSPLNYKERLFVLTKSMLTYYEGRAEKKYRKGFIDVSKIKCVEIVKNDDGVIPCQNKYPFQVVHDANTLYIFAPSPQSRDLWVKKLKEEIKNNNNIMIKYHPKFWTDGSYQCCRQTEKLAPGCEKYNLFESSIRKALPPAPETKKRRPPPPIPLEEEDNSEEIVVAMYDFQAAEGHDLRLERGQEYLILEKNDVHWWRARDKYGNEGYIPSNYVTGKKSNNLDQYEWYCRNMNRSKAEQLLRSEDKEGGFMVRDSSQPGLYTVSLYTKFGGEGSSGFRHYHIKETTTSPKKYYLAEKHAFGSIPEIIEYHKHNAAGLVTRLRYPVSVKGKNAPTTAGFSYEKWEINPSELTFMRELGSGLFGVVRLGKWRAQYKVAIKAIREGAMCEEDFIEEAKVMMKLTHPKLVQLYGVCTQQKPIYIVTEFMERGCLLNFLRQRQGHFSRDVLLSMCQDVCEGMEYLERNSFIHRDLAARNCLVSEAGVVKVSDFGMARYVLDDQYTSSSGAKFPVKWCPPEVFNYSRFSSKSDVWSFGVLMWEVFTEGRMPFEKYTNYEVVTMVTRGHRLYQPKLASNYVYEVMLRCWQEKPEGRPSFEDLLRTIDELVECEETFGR

[12] = biological target: T12, panel of 370 protein kinases (Homo sapiens, UniProt Q6DT37); details: 2 h, kinase DMPK2; read-out: % Enzyme Activity (relative to DMSO controls)
T12 construct: purchased Reaction Biology Corporation (assay service)

[13] = biological target: T13, panel of 370 protein kinases (Homo sapiens, UniProt Q9UEW8); details: 2 h, kinase STK39/STLK3; read-out: % Enzyme Activity (relative to DMSO controls)
T13 construct: purchased Reaction Biology Corporation (assay service)

[14] = biological target: T14, panel of 370 protein kinases (Homo sapiens, UniProt P53350); details: 2 h, kinase PLK1; read-out: % Enzyme Activity (relative to DMSO controls)
T14 construct: purchased Reaction Biology Corporation (assay service)

[15] = biological target: T15, panel of 370 protein kinases (Homo sapiens, UniProt P31751); details: 2 h, kinase AKT2; read-out: % Enzyme Activity (relative to DMSO controls)
T15 construct: purchased Reaction Biology Corporation (assay service)

[16] = biological target: T16, panel of 370 protein kinases (Homo sapiens, UniProt P51617); details: 2 h, kinase IRAK1; read-out: % Enzyme Activity (relative to DMSO controls)
T16 construct: purchased Reaction Biology Corporation (assay service)

[17] = biological target: T17, panel of 370 protein kinases (Homo sapiens, UniProt P51813); details: 2 h, kinase BMX/ETK; read-out: % Enzyme Activity (relative to DMSO controls)
T17 construct: purchased Reaction Biology Corporation (assay service)

[18] = biological target: T18, panel of 370 protein kinases (Homo sapiens, UniProt Q9H1R3); details: 2 h, kinase MLCK2/MYLK2; read-out: % Enzyme Activity (relative to DMSO controls)
T18 construct: purchased Reaction Biology Corporation (assay service)

[19] = biological target: T19, panel of 370 protein kinases (Homo sapiens, UniProt O43293); details: 2 h, kinase ZIPK/DAPK3; read-out: % Enzyme Activity (relative to DMSO controls)
T19 construct: purchased Reaction Biology Corporation (assay service)
T19 sequence (O43293 whole entry): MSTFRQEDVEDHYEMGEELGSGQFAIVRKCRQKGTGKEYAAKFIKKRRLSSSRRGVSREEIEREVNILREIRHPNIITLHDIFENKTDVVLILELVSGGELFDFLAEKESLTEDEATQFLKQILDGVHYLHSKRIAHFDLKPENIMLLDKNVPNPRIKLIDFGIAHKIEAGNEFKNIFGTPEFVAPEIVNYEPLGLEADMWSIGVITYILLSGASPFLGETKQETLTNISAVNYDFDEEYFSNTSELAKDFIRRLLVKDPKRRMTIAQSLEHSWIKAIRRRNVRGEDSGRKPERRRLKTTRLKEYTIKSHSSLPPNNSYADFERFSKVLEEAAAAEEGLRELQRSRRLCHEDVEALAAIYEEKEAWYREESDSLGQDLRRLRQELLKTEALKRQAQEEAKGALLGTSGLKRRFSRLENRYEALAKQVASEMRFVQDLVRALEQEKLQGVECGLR

[20] = biological target: T20, panel of 370 protein kinases (Homo sapiens, UniProt Q9UQB9); details: 2 h, kinase AURORA C; read-out: % Enzyme Activity (relative to DMSO controls)
T20 construct: purchased Reaction Biology Corporation (assay service)
T20 sequence (Q9UQB9 whole entry): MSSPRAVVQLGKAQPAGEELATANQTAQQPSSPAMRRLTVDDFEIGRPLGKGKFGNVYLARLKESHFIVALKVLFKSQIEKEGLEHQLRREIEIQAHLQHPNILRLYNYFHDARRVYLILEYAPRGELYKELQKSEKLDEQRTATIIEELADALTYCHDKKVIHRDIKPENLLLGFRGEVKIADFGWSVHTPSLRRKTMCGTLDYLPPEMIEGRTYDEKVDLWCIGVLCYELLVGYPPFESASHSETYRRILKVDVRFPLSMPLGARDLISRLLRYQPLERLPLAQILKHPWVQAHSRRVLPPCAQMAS

[21] = biological target: T21, panel of 370 protein kinases (Homo sapiens, UniProt P21802); details: 2 h, kinase FGFR2; read-out: % Enzyme Activity (relative to DMSO controls)
T21 construct: purchased Reaction Biology Corporation (assay service)
T21 sequence (P21802 22-821): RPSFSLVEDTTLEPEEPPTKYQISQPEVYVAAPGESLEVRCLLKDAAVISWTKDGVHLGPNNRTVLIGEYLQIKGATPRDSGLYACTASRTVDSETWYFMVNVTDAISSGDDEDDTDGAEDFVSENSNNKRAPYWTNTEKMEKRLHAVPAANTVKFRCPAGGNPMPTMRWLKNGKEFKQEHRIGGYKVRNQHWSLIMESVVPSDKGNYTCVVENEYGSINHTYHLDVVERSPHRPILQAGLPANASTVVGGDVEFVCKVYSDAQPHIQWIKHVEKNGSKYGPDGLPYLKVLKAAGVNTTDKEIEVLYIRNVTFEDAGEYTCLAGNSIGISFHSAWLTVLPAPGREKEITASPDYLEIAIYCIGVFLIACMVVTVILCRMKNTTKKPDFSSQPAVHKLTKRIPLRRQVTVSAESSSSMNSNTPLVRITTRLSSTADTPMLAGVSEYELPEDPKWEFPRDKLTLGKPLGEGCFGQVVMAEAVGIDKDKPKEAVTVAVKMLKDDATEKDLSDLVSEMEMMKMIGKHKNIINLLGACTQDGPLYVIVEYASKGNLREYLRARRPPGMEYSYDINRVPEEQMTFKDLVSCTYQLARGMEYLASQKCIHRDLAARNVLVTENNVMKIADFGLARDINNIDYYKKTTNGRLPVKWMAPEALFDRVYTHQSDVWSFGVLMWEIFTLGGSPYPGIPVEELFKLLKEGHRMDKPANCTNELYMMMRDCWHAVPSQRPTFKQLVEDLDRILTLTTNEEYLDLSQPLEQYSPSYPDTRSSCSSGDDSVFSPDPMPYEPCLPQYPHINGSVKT

Question: CCN1CCN(C(=O)c2ccc(Nc3ncc(F)c(-c4ccc5nc(N(C)C)sc5c4)n3)nc2)CC1 [YK-2-69] was tested. Which remaining activity at 1 µM [1] did it give?
Answer: The remaining activity at 1 µM was 101%.

Question: What about the remaining activity at 1 µM [2] of the same compound?
Answer: The remaining activity at 1 µM was 80.7%.

Question: What about the remaining activity at 1 µM [3] of the same compound?
Answer: The remaining activity at 1 µM was 91.8%.

Question: And the remaining activity at 1 µM [4]?
Answer: The remaining activity at 1 µM was 88.6%.

Question: And the remaining activity at 1 µM [5]?
Answer: The remaining activity at 1 µM was 95.2%.

Question: And the remaining activity at 1 µM [6]?
Answer: Its remaining activity at 1 µM is 92.2%.

Question: What about the remaining activity at 1 µM [7] of the same compound?
Answer: Its remaining activity at 1 µM is 86%.

Question: And the remaining activity at 1 µM [8]?
Answer: The remaining activity at 1 µM was 57.5%.

Question: And the remaining activity at 1 µM [9]?
Answer: Its remaining activity at 1 µM is 40.7%.

Question: What about the remaining activity at 1 µM [10] of the same compound?
Answer: Its remaining activity at 1 µM is 88.1%.

Question: What about the remaining activity at 1 µM [11] of the same compound?
Answer: Its remaining activity at 1 µM is 107%.

Question: And the remaining activity at 1 µM [12]?
Answer: Its remaining activity at 1 µM is 97.7%.

Question: And the remaining activity at 1 µM [13]?
Answer: The remaining activity at 1 µM was 39.9%.

Question: What about the remaining activity at 1 µM [14] of the same compound?
Answer: Its remaining activity at 1 µM is 115%.

Question: And the remaining activity at 1 µM [15]?
Answer: Its remaining activity at 1 µM is 98.6%.

Question: And the remaining activity at 1 µM [16]?
Answer: The remaining activity at 1 µM was 90.6%.

Question: And the remaining activity at 1 µM [17]?
Answer: The remaining activity at 1 µM was 80.6%.

Question: What about the remaining activity at 1 µM [18] of the same compound?
Answer: The remaining activity at 1 µM was 78.7%.

Question: And the remaining activity at 1 µM [19]?
Answer: The remaining activity at 1 µM was 67.1%.

Question: And the remaining activity at 1 µM [20]?
Answer: The remaining activity at 1 µM was 94.7%.

Question: What about the remaining activity at 1 µM [21] of the same compound?
Answer: Its remaining activity at 1 µM is 86.2%.
